Laboratory results as given in patent US20250074871A1, “PHENETHYLAMINES AND METHODS OF PREPARATION THEREOF” (priority 2022, published 2025).
Several values for one entry are separate records, joined by “and”; a condition that tells them apart may be missing. Equal entries are not always repeated. Where two headings read alike, the source gives them in different places.

What was measured:
5-HT6 = 5-HT6 (Homo sapiens, UniProt P50406); experiment: 5-HT receptor activity panel (Table 3); format: cell-based
mice = experiment: head-twitch response (HTR) in mice; format: in vivo, male C57BL/6J mice; details: for ED50: Mus musculus
Procedure: As used herein and unless otherwise specified, the term “HTR” refers to head-twitch response, which is a measurement of 5-HT2A activation in vivo.
As used herein and unless otherwise specified, the term “mice” refers to male C57BL/6J mice (6-8 weeks old).
HTR was assessed using a head-mounted neodymium magnet and a magnetometer detection coil, as described in Halberstadt et al., Psychopharmacology (Berl.), 2013, 227(4): 727-739. Table 8 below summarizes the ED50 in head twitch in mice of various compounds disclosed herein as compared to psilocybin. FIG. 3 illustrates the HTR relative to dose for compound 109: […]

5-HT1A = molecular target: T1, 5-HT1A (Homo sapiens, UniProt P08908); experiment: 5-HT receptor activity panel (Table 3); format: cell-based; details: Table 3
T1 sequence (P08908 1-422): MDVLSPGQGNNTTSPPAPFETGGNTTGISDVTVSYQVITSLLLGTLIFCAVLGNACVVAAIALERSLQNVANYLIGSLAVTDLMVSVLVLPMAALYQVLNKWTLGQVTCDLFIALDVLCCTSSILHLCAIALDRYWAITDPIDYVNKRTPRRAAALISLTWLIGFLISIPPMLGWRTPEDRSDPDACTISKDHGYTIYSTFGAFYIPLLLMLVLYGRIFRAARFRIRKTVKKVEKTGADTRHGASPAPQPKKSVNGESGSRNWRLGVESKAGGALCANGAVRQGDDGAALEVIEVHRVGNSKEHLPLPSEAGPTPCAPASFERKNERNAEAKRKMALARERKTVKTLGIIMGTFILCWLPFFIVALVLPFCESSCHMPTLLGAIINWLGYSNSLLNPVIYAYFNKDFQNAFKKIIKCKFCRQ

5-HT1F = molecular target: T2, 5-HT1F (Homo sapiens, UniProt P30939); experiment: 5-HT receptor activity panel (Table 3); format: cell-based
T2 sequence (P30939 1-366): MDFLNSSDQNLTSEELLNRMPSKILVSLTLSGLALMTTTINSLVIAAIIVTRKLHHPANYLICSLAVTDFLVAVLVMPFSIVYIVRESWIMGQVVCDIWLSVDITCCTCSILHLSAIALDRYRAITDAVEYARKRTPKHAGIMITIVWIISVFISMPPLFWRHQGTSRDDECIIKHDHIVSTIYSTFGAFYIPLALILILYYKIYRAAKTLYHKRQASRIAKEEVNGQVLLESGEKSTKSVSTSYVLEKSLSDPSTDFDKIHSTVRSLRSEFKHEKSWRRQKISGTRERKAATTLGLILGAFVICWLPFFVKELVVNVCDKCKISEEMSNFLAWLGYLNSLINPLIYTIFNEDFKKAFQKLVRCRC

5-HT1D = 5-HT1D (Homo sapiens, UniProt P28221); experiment: 5-HT receptor activity panel (Table 3); format: cell-based; details: Table 3
5-HT2B receptor = molecular target: T3, 5-HT2B receptor (Homo sapiens, UniProt P41595); experiment: 5-HT2B Gq dissociation BRET functional assay; format: cell-based; details: for 5-HT2B BRET Eff %: normalized to % 5-HT stimulation
T3 construct: expressed in transfected cells; host or cells: HEK293T

hepatocyte [1] = experiment: in vitro hepatocyte clearance, rat; format: in vitro ADME; details: Rat
Procedure: (§1) Additional experimentation was performed on compound 109. Table 6 summarizes, among other things, the anticipated hepatic clearance of compound 109 in various species, as specified in Table 6 and as determined by calculating the in vitro hepatocyte clearance over time and scaling such rate with such species' hepatocyte count and the anticipated liver blood flow rate in such species.

[2] = in vitro hepatocyte clearance, rat; format: in vitro ADME; details: for hepatocyte CLint / half-life: Rat hepatocytes; for hepatocyte CLint: read-out: In vitro Clint (μL/min/10^6 cells); for half-life: read-out: In vitro T1/2; for CLint scaled: rat, hepatocytes, read-out: Scale-up Clint
Procedure: as §1

5-HT2A receptor = molecular target: T4, 5-HT2A receptor (Homo sapiens, UniProt P28223); experiment: 5-HT2A Gq dissociation BRET functional assay; format: cell-based; details: for 5-HT2A BRET Eff %: normalized to % 5-HT stimulation
T4 construct: expressed in transfected cells; host or cells: HEK293T

hepatocyte [3] = experiment: in vitro hepatocyte clearance, monkey; format: in vitro ADME; details: Monkey
Procedure: as §1

[4] = in vitro hepatocyte clearance, monkey; format: in vitro ADME; details: Monkey hepatocytes; for hepatocyte CLint: read-out: In vitro Clint (μL/min/10^6 cells); for half-life: read-out: In vitro T1/2; for CLint scaled: read-out: Scale-up Clint
Procedure: as §1

5-HT4 = 5-HT4 (Homo sapiens, UniProt Q13639); experiment: 5-HT receptor activity panel (Table 3); format: cell-based; details: Table 3
5-HT2C receptor = molecular target: T5, 5-HT2C receptor (Homo sapiens, UniProt P28335); experiment: cell-based; format: cell-based; details: for 5-HT2C BRET Eff %: normalized to % 5-HT stimulation
T5 construct: expressed in transfected cells; host or cells: HEK293T
T5 sequence (P28335 33-458): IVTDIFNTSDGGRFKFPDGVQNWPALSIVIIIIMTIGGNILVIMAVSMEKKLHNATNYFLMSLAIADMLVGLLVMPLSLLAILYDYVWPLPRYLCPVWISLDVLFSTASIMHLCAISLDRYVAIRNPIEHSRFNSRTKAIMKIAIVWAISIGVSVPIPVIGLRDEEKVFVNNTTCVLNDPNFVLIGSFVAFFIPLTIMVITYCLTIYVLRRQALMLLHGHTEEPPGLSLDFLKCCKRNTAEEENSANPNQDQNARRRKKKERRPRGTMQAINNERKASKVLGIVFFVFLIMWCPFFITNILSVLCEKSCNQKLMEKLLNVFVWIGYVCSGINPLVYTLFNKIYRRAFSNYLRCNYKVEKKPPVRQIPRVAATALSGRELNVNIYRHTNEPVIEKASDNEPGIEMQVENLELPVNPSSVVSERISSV

hepatocyte [5] = experiment: in vitro hepatocyte clearance, mouse; format: in vitro ADME; details: Mouse
Procedure: as §1

[6] = in vitro hepatocyte clearance, mouse; format: in vitro ADME; details: Mouse hepatocytes; for hepatocyte CLint: read-out: In vitro Clint (μL/min/10^6 cells); for half-life: read-out: In vitro T1/2; for CLint scaled: read-out: Scale-up Clint
Procedure: as §1

[7] = Table 2, at least three replicate trials, read-out: 5-HT2C BRET EC50
[8] = Table 3 panel, read-out: 5-HT2C EC50

T3 sequence (P41595 whole entry): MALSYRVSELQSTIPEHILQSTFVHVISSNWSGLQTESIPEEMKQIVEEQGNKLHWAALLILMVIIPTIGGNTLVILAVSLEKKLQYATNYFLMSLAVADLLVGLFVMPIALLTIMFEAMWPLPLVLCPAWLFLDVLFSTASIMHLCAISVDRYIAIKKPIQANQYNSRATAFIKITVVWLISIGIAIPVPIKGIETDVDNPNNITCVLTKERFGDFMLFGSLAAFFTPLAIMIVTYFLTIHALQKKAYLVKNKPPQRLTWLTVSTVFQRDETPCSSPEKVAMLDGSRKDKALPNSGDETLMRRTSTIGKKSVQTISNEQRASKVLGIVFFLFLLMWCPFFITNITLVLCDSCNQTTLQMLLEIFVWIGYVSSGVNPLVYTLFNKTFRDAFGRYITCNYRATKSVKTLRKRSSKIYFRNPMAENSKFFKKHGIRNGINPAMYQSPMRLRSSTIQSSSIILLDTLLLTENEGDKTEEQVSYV
T4 sequence (P28223 whole entry): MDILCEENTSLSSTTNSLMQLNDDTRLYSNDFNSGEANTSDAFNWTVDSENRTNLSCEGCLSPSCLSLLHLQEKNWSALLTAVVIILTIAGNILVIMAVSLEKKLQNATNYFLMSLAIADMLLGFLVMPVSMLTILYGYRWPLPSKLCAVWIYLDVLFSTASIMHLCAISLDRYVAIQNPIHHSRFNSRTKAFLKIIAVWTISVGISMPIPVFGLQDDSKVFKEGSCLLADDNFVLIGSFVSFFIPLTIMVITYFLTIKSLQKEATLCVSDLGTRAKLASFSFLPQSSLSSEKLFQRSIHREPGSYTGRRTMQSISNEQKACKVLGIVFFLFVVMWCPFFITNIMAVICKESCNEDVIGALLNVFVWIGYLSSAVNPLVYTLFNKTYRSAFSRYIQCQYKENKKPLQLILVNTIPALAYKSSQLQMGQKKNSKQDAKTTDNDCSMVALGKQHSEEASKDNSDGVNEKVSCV
Chain of 5-HT1D (P28221 whole entry, species assumed): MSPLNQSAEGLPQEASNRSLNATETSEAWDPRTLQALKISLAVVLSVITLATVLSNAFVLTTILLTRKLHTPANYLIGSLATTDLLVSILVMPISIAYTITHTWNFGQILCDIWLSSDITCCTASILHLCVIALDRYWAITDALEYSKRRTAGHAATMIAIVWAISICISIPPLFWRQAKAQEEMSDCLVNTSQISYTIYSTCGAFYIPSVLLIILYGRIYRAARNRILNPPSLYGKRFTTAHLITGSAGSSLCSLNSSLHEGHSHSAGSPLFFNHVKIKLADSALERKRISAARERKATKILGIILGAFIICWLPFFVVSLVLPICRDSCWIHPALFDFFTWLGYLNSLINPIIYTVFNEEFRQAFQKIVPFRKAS
Chain of 5-HT6 (P50406 whole entry, species assumed): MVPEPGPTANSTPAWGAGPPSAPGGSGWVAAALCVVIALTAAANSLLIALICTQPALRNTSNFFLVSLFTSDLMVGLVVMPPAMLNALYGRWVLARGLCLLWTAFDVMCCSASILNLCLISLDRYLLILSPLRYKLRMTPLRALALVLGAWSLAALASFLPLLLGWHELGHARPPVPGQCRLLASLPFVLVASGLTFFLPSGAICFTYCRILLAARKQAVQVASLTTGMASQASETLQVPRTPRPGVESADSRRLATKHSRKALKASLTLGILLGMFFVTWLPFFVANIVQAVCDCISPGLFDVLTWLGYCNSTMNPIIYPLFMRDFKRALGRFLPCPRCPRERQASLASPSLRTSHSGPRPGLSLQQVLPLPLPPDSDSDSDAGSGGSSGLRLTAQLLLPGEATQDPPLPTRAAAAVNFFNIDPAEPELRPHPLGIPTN
Chain of 5-HT4 (Q13639 whole entry, species assumed): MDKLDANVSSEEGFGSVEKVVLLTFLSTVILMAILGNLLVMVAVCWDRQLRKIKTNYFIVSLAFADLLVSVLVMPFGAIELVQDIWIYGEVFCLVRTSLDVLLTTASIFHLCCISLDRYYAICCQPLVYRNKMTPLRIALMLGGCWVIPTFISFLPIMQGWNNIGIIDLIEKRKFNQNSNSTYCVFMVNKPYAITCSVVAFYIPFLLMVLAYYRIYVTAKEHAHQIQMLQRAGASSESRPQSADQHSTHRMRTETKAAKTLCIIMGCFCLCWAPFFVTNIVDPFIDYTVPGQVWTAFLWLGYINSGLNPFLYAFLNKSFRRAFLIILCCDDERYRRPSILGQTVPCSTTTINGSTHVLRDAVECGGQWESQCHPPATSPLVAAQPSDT

COc1cc(C(F)(F)F)ccc1CCNCc1ccccc1O [Cpd #93]
EC50 (5-HT6): 0.6 nM | 5-HT6 Eff, % (5-HT6; Table 3): −12% | ED50 (mice; mice): 0.28 mg/kg | 5-HT1A EC50, nM (5-HT1A): Not active | EC50 (5-HT1F): 8090 nM | 5-HT1F Eff, % (5-HT1F; Table 3): 69% | 5-HT1D EC50, nM (5-HT1D): Not active | EC50 (5-HT2B receptor; 5-HT2B BRET EC50 (nM), Table 2, at least three replicate trials): 62.3 nM and 96.2 nM | EC50 (5-HT2B receptor; 5-HT2B EC50, nM, Table 3 panel): 64.2 nM | 5-HT2B BRET Eff % (5-HT2B receptor; Table 2): 53% and 52% | 5-HT2B Eff, % (5-HT2B receptor; Table 3 panel): 50% | Predicted hepatic CL (hepatocyte [1]): <54.16 mL/min/kg | hepatocyte CLint [2]: < 614 µL/min/1e6 cells | half-life [2]: > 2.26 min | CLint scaled [2]: < 2870 mL/min/kg | EC50 (5-HT2A receptor; 5-HT2A BRET EC50 (nM), Table 2, at least three replicate trials): 0.7 nM and 1.17 nM | EC50 (5-HT2A receptor; 5-HT2A EC50, nM, Table 3 panel): 0.3 nM | EC50 (5-HT2A receptor; EC50 BRET 2A, Table 4, unit inferred): 1.2 nM | 5-HT2A BRET Eff % (5-HT2A receptor; Table 2): 96% and 91% | 5-HT2A Eff, % (5-HT2A receptor; Table 3 panel): 96% | Predicted hepatic CL (hepatocyte [3]): 42.50 mL/min/kg | hepatocyte CLint [4]: 467 µL/min/1e6 cells | half-life [4]: 2.97 min | CLint scaled [4]: 1680 mL/min/kg | 5-HT4 EC50, nM (5-HT4): Not active | EC50 (5-HT2C receptor; [7]): 1.1 nM and 1.3 nM | 5-HT2C BRET Eff % (5-HT2C receptor; Table 2): 105% and 103% | 5-HT2C Eff, % (5-HT2C receptor; Table 3 panel): 99% | EC50 (5-HT2C receptor; [8]): 1.5 nM | Predicted hepatic CL (hepatocyte [5]): <88.90 mL/min/kg | hepatocyte CLint [6]: < 614 µL/min/1e6 cells | half-life [6]: > 2.26 min | CLint scaled [6]: < 7250 mL/min/kg

CSc1ccccc1CNCCc1ccc(C#N)cc1O [Cpd #109]
5-HT6 Eff, % (5-HT6; Table 3): 18% | EC50 (5-HT6; Table 3, read-out: 5-HT6 EC50): 5390 nM | ED50 (mice; mice): 2.69 mg/kg | central hallucinogenic (or psychedelic) effects compared with psilocybin (mice; conclusion from Tables 6-8): less central hallucinogenic (or psychedelic) effects than traditional psychedelic compounds such as psilocybin | duration of psychedelic effect (HTR over time) (mice; mice, FIG. 4, different doses): less than 30 minutes | 5-HT1A Eff, % (5-HT1A): 3% | EC50 (5-HT1A; read-out: 5-HT1A EC50): 4270 nM | 5-HT1F Eff, % (5-HT1F; Table 3): 12% | EC50 (5-HT1F; Table 3, read-out: 5-HT1F EC50): 582 nM | 5-HT1D Eff, % (5-HT1D): 6% | EC50 (5-HT1D; read-out: 5-HT1D EC50): 379 nM | EC50 (5-HT2B receptor; Table 2, at least three replicate trials, read-out: 5-HT2B BRET EC50): 3140 nM | 5-HT2B BRET Eff % (5-HT2B receptor; Table 2): 95% | 5-HT2B Eff, % (5-HT2B receptor; Table 3 panel): 84% | EC50 (5-HT2B receptor; Table 3 panel, read-out: 5-HT2B EC50): 3090 nM | Hepatic Extraction Ratio (E) (hepatocyte [1]): 0.95 | Predicted hepatic CL (hepatocyte [1]): 52.55 mL/min/kg | hepatocyte CLint [2]: 234 µL/min/1e6 cells | half-life [2]: 5.93 min | CLint scaled [2]: 1090 mL/min/kg | EC50 (5-HT2A receptor; Table 2, at least three replicate trials, read-out: 5-HT2A BRET EC50): 5.1 nM | 5-HT2A BRET Eff % (5-HT2A receptor; Table 2): 102% | 5-HT2A Eff, % (5-HT2A receptor; Table 3 panel): 99% | EC50 (5-HT2A receptor; Table 3 panel, read-out: 5-HT2A EC50): 4.8 nM | EC50 (5-HT2A receptor; Table 4, unit inferred, read-out: EC50 BRET 2A): 4.8 nM | Hepatic Extraction Ratio (E) (hepatocyte [3]): 0.98 | Predicted hepatic CL (hepatocyte [3]): 42.57 mL/min/kg | hepatocyte CLint [4]: 499 µL/min/1e6 cells | half-life [4]: 2.78 min | CLint scaled [4]: 1800 mL/min/kg | 5-HT4 Eff, % (5-HT4): −3% | EC50 (5-HT4; read-out: 5-HT4 EC50): 0.2 nM | EC50 (5-HT2C receptor; [7]): 253 nM | 5-HT2C BRET Eff % (5-HT2C receptor; Table 2): 114% | 5-HT2C Eff, % (5-HT2C receptor; Table 3 panel): 110% | EC50 (5-HT2C receptor; [8]): 225 nM | Hepatic Extraction Ratio (E) (hepatocyte [5]): >0.99 | Predicted hepatic CL (hepatocyte [5]): >88.90 mL/min/kg | hepatocyte CLint [6]: > 614 µL/min/1e6 cells | half-life [6]: < 2.26 min | CLint scaled [6]: > 7250 mL/min/kg
